Results as given in patent EP3383875B1, “3-PYRIMIDINYL PYRROLO [2,3-B] PYRIDINE AS ANTICANCER AGENTS AND THE PROCESS FOR THE PREPARATION THEREOF” (Council Of Scientific & Industrial Research, priority 2015, dated 2017).
Where two headings read alike, the source gives them in different places.

Assays:
[1] = molecular target: CDK-2/cyclin A (Homo sapiens, UniProt P24941); assay: CDK inhibition assay, CDK-2/cyclin A against Histone HI, 33P-ATP; format: biochemical
Method: Compounds were evaluated for their ability to inhibit CDK2 and CDK9 as given below.
CDK-2/cyclin A (5-20 mU diluted in 50 mM Hepes pH 7.5, 1 mM DTT, 0.02% Brij35, 100 mM NaCl) was assayed against Histone HI in a final volume of 25.5 µl containing 50 mM Hepes pH7.5, 1 mM DTT, 0.02% Brij35, 100 mM NaCl, Histone HI (1 mg/ml), 10 mM magnesium acetate and 0.02 mM [33P-g-ATP](500-1000 cpm/pmole) and incubated for 30 min at room temperature. Assays were stopped by addition of 5 µl of 0.5 M (3%) orthophosphoric acid and then harvested onto P81 Unifilter plates with a wash buffer of 50 mM orthophosphoric acid.

[2] = molecular target: CDK-9/Cyclin T1 (Homo sapiens, UniProt P50750); assay: CDK inhibition assay, CDK-9/Cyclin T1 against substrate peptide, 33P-ATP; format: biochemical
Method: (50-1000 cpm/pmole) and incubated for 30 min at room temperature. Assays were stopped by addition of 5 µl of 0.5 M (3%) orthophosphoric acid and then harvested onto P81 Unifilter plates with a wash buffer of 50 mM orthophosphoric acid.

[3] = test system: SHSY-5Y; assay: MTT assay on cancer cell line SHSY-5Y; format: cell-based, human; conditions: Homo sapiens, SH-SY5Y
Method: (§1) Cell culture, growth conditions and treatments. […] Different molecules were dissolved in DMSO and were delivered to cell cultures in complete medium.

[4] = test system: MCF-7; assay: MTT assay on cancer cell line MCF-7; format: cell-based, Human; conditions: Homo sapiens
Method: as §1

[5] = test system: PC-3; assay: MTT assay on cancer cell line PC-3; format: cell-based, human; conditions: Homo sapiens, Table 9 (for reference), read-out: In vitro cell inhibition, % of inhibition, PC-3
Method: as §1

[6] = test system: HCT-116; assay: MTT assay on cancer cell line HCT-116; format: cell-based, human; conditions: Homo sapiens, at 10µM, Table 9 (for reference), read-out: In vitro cell inhibition, % of inhibition, HCT-116
Method: as §1

[7] = test system: MDA-MB435; assay: MTT assay on cancer cell line MDA-MB435; format: cell-based, Human; conditions: Homo sapiens, MDA-MB-435; MDA-MB435; at 10µM; Table 9 (for reference); read-out: In vitro cell inhibition, % of inhibition, MDA-MB435
Method: as §1

[8] = at 500 nM, Table-7, read-out: In vitro CDK2 % of inhibition
[9] = at 500 nM, read-out: inhibition against CDK2
[10] = at 500 nM, Table-7, read-out: In vitro CDK9 % of inhibition
[11] = at 500 nM, read-out: inhibition against CDK9
[12] = SHSY-5Y, Table 9 (for reference), read-out: In vitro cell inhibition, % of inhibition, SHSY-5Y
[13] = MCF7, MCF-7, Table 9 (for reference), read-out: In vitro cell inhibition, % of inhibition, MCF-7
[14] = MCF7, read-out: inhibition against MCF-7 cell lines
[15] = read-out: inhibition against SHSY-5Y cell lines

Chain of CDK-9/Cyclin T1 (P50750 whole entry): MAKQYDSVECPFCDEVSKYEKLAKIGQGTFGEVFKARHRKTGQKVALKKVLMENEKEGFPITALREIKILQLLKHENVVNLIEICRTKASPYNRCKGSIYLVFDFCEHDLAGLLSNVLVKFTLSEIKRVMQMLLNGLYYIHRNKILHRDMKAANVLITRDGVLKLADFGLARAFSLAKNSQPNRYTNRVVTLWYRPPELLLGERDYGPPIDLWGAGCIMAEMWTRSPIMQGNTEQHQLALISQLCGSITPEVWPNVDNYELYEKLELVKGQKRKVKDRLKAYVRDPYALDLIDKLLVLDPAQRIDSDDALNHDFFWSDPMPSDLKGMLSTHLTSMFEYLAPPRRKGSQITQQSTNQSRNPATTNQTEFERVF
Chain of CDK-9/Cyclin T1 (O60563 whole entry partner): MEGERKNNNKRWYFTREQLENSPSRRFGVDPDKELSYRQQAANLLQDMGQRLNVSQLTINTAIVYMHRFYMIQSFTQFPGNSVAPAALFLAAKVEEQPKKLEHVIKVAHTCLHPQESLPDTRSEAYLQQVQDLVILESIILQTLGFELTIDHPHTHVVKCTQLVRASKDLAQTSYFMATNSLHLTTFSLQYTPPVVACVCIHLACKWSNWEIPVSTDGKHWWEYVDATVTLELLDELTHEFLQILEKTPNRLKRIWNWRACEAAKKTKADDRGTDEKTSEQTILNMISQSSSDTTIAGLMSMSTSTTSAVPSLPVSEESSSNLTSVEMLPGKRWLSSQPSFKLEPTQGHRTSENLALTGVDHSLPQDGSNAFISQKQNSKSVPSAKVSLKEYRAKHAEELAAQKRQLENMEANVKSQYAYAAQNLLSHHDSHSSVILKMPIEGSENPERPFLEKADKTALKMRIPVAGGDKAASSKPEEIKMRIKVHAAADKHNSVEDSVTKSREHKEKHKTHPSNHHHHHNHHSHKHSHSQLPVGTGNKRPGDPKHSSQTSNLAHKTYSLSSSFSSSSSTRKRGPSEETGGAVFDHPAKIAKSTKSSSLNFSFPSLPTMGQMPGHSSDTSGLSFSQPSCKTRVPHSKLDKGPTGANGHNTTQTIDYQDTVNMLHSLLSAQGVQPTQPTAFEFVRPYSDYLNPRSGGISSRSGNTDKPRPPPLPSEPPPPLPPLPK

## c1ccc(CCNc2nccc(-c3c[nH]c4ncc(-c5ccoc5)cc34)n2)cc1 [1B16, 4-(5-(furan-3-yl)-1H-pyrrolo[2,3-b]pyridin-3-yl)-N-phenethylpyrimidin-2-amine]
[1]; [8]
  inhibition at 0.5 µM: > 70%
[1]; read-out: inhibition against CDK2
  inhibition at 0.5 µM: > 70%
[2]; read-out: In vitro CDK9 % of inhibition
  inhibition at 0.5 µM: > 70%
[2]; read-out: inhibition against CDK9
  inhibition at 0.5 µM: > 70%

## COc1ccc2[nH]c(-c3cnc4[nH]cc(-c5ccnc(NCCc6ccccc6)n5)c4c3)cc2c1 [1B17, 4-(5-(5-methoxy-1H-indol-2-yl)-1H-pyrrolo[2,3-b]pyridin-3-yl)-N-phenethylpyrimidin-2-amine]
[1]; [8]
  inhibition at 0.5 µM: > 50%
[1]; [9]
  inhibition at 0.5 µM: > 50%
[2]; [10]
  inhibition at 0.5 µM: > 50%
[2]; [11]
  inhibition at 0.5 µM: > 50%

## c1ccc(CCNc2nccc(-c3c[nH]c4ncc(-c5cc6ccccc6s5)cc34)n2)cc1 [1B18, 4-(5-(benzo[b]thiophen-2-yl)-1H-pyrrolo[2,3-b]pyridin-3-yl)-N-phenethylpyrimidin-2-amine]
[1]; [8]
  inhibition at 0.5 µM: > 50%
[1]; [9]
  inhibition at 0.5 µM: > 50%
[2]; [10]
  inhibition at 0.5 µM: > 50%
[2]; [11]
  inhibition at 0.5 µM: > 50%

## c1ccc(CCNc2nccc(-c3c[nH]c4ncc(-c5cc6ccccc6[nH]5)cc34)n2)cc1 [1B19, 4-(5-(1H-indol-2-yl)-1H-pyrrolo[2,3-b]pyridin-3-yl)-N-phenethylpyrimidin-2-amine]
[1]; [8]
  inhibition at 0.5 µM: > 50%
[1]; [9]
  inhibition at 0.5 µM: > 50%
[2]; [10]
  inhibition at 0.5 µM: > 50%
[2]; [11]
  inhibition at 0.5 µM: > 50%

## c1ccc(CCNc2nccc(-c3c[nH]c4ncc(-c5nccc6ccccc56)cc34)n2)cc1 [1B20, 4-(5-(isoquinolin-1-yl)-1H-pyrrolo[2,3-b]pyridin-3-yl)-N-phenethylpyrimidin-2-amine]
[1]; [8]
  inhibition at 0.5 µM: > 50%
[1]; [9]
  inhibition at 0.5 µM: > 50%
[2]; [10]
  inhibition at 0.5 µM: > 50%
[2]; [11]
  inhibition at 0.5 µM: > 50%

## Nc1nccc(-c2c[nH]c3ncc(-c4ccc(C(F)(F)F)cc4)cc23)n1 [1C1, 4-(5-(4-(trifluoromethyl)phenyl)-1H-pyrrolo[2,3-b]pyridin-3-yl)pyrimidin-2-amine]
[3]; [12]
  inhibition at 10 µM: > 50%
[4]; [13]
  inhibition at 10 µM: > 50%
[4]; [14]
  inhibition at 10 µM: > 50%
[5]
  inhibition at 10 µM: > 50%
[6]
  inhibition at 10 µM: > 50%
[7]
  inhibition at 10 µM: < 50%

## Nc1nccc(-c2c[nH]c3ncc(-c4ccc(OC(F)(F)F)cc4)cc23)n1 [1C3, 4-(5-(4-(trifluoromethoxy)phenyl)-1H-pyrrolo[2,3-b]pyridin-3-yl)pyrimidin-2-amine]
[3]; [12]
  inhibition at 10 µM: > 70%
[3]; [15]
  inhibition at 10 µM: > 70%
[4]; [13]
  inhibition at 10 µM: > 70%
[4]; [14]
  inhibition at 10 µM: > 70%
[5]
  inhibition at 10 µM: > 50%
[6]
  inhibition at 10 µM: > 70%
[7]
  inhibition at 10 µM: > 70%

## Nc1nccc(-c2c[nH]c3ncc(-c4cccc(F)c4)cc23)n1 [1C5, 4-(5-(3-fluorophenyl)-1H-pyrrolo[2,3-b]pyridin-3-yl)pyrimidin-2-amine]
[3]; [12]
  inhibition at 10 µM: > 70%
[3]; [15]
  inhibition at 10 µM: > 70%
[4]; [13]
  inhibition at 10 µM: > 70%
[4]; [14]
  inhibition at 10 µM: > 70%
[5]
  inhibition at 10 µM: < 50%
[6]
  inhibition at 10 µM: > 70%
[7]
  inhibition at 10 µM: > 70%

## Cc1ccc(-c2cnc3[nH]cc(-c4ccnc(N)n4)c3c2)cc1 [1C6, 4-(5-(p-tolyl)-1H-pyrrolo[2,3-b]pyridin-3-yl)pyrimidin-2-amine]
[3]; [12]
  inhibition at 10 µM: > 70%
[3]; [15]
  inhibition at 10 µM: > 70%
[4]; [13]
  inhibition at 10 µM: > 70%
[4]; [14]
  inhibition at 10 µM: > 70%
[5]
  inhibition at 10 µM: > 50%
[6]
  inhibition at 10 µM: > 70%
[7]
  inhibition at 10 µM: > 70%

## CSc1ccc(-c2cnc3[nH]cc(-c4ccnc(N)n4)c3c2)cc1 [1C8, 4-(5-(4-(methylthio)phenyl)-1H-pyrrolo[2,3-b]pyridin-3-yl)pyrimidin-2-amine]
[3]; [12]
  inhibition at 10 µM: > 50%
[4]; [13]
  inhibition at 10 µM: > 50%
[4]; [14]
  inhibition at 10 µM: > 50%
[5]
  inhibition at 10 µM: < 50%
[6]
  inhibition at 10 µM: > 70%
[7]
  inhibition at 10 µM: > 70%

## COc1ccc(-c2cnc3[nH]cc(-c4ccnc(N)n4)c3c2)cc1 [1C11, 4-(5-(4-methoxyphenyl)-1H-pyrrolo[2,3-b]pyridin-3-yl)pyrimidin-2-amine]
[3]; [12]
  inhibition at 10 µM: > 70%
[3]; [15]
  inhibition at 10 µM: > 70%
[4]; [13]
  inhibition at 10 µM: > 50%
[4]; [14]
  inhibition at 10 µM: > 50%
[5]
  inhibition at 10 µM: < 50%
[6]
  inhibition at 10 µM: > 70%
[7]
  inhibition at 10 µM: > 70%

## Nc1nccc(-c2c[nH]c3ncc(-c4ccc(Cl)cc4)cc23)n1 [1C12, 4-(5-(4-chlorophenyl)-1H-pyrrolo[2,3-b]pyridin-3-yl)pyrimidin-2-amine]
[3]; [12]
  inhibition at 10 µM: > 70%
[3]; [15]
  inhibition at 10 µM: > 70%
[4]; [13]
  inhibition at 10 µM: > 70%
[4]; [14]
  inhibition at 10 µM: > 70%
[5]
  inhibition at 10 µM: > 70%
[6]
  inhibition at 10 µM: > 70%
[7]
  inhibition at 10 µM: > 70%

## Nc1nccc(-c2c[nH]c3ncc(-c4ccc(C=O)cc4)cc23)n1 [1C13, 4-(3-(2-aminopyrimidin-4-yl)-1H-pyrrolo[2,3-b]pyridin-5-yl)benzaldehyde]
[3]; [12]
  inhibition at 10 µM: > 50%
[4]; [13]
  inhibition at 10 µM: > 50%
[4]; [14]
  inhibition at 10 µM: > 50%
[5]
  inhibition at 10 µM: > 50%
[6]
  inhibition at 10 µM: > 50%
[7]
  inhibition at 10 µM: > 50%

## Nc1nccc(-c2c[nH]c3ncc(-c4cccnc4)cc23)n1 [1C15, 4-(5-(pyridin-3-yl)-1H-pyrrolo[2,3-b]pyridin-3-yl)pyrimidin-2-amine]
[3]; [12]
  inhibition at 10 µM: > 70%
[3]; [15]
  inhibition at 10 µM: > 70%
[4]; [13]
  inhibition at 10 µM: > 70%
[4]; [14]
  inhibition at 10 µM: > 70%
[5]
  inhibition at 10 µM: < 50%
[6]
  inhibition at 10 µM: > 50%
[7]
  inhibition at 10 µM: > 70%

## Nc1nccc(-c2c[nH]c3ncc(-c4ccoc4)cc23)n1 [1C16, 4-(5-(furan-3-yl)-1H-pyrrolo[2,3-b]pyridin-3-yl)pyrimidin-2-amine]
[3]; [12]
  inhibition at 10 µM: > 70%
[3]; [15]
  inhibition at 10 µM: > 70%
[4]; [13]
  inhibition at 10 µM: > 70%
[4]; [14]
  inhibition at 10 µM: > 70%
[5]
  inhibition at 10 µM: < 50%
[6]
  inhibition at 10 µM: > 70%
[7]
  inhibition at 10 µM: > 70%

## COc1ccc2[nH]c(-c3cnc4[nH]cc(-c5ccnc(N)n5)c4c3)cc2c1 [1C17, 4-(5-(5-methoxy-1H-indol-2-yl)-1H-pyrrolo[2,3-b]pyridin-3-yl)pyrimidin-2-amine]
[3]; [12]
  inhibition at 10 µM: < 50%
[4]; [13]
  inhibition at 10 µM: > 70%
[4]; [14]
  inhibition at 10 µM: > 70%
[5]
  inhibition at 10 µM: > 50%
[6]
  inhibition at 10 µM: > 70%
[7]
  inhibition at 10 µM: > 70%

## Nc1nccc(-c2c[nH]c3ncc(-c4cc5ccccc5s4)cc23)n1 [1C18, 4-(5-(benzo[b]thiophen-2-yl)-1H-pyrrolo[2,3-b]pyridin-3-yl)pyrimidin-2-amine]
[3]; [12]
  inhibition at 10 µM: > 70%
[3]; [15]
  inhibition at 10 µM: > 70%
[4]; [13]
  inhibition at 10 µM: > 70%
[5]
  inhibition at 10 µM: > 70%
[6]
  inhibition at 10 µM: > 70%
[7]
  inhibition at 10 µM: < 50%

## Nc1nccc(-c2c[nH]c3ncc(-c4cc5ccccc5[nH]4)cc23)n1 [1C19, 4-(5-(1H-indol-2-yl)-1H-pyrrolo[2,3-b]pyridin-3-yl)pyrimidin-2-amine]
[3]; [12]
  inhibition at 10 µM: > 70%
[3]; [15]
  inhibition at 10 µM: > 70%
[4]; [13]
  inhibition at 10 µM: > 50%
[4]; [14]
  inhibition at 10 µM: > 70%
[5]
  inhibition at 10 µM: < 50%
[6]
  inhibition at 10 µM: > 50%
[7]
  inhibition at 10 µM: > 50%

## Nc1nccc(-c2c[nH]c3ncc(-c4nccc5ccccc45)cc23)n1 [1C20, 4-(5-(isoquinolin-1-yl)-1H-pyrrolo[2,3-b]pyridin-3-yl)pyrimidin-2-amine]
[3]; [12]
  inhibition at 10 µM: > 50%
[4]; [13]
  inhibition at 10 µM: > 50%
[4]; [14]
  inhibition at 10 µM: > 50%
[5]
  inhibition at 10 µM: > 50%
[6]
  inhibition at 10 µM: > 70%
[7]
  inhibition at 10 µM: > 50%

## CN1CC[C@H](c2c(O)cc(O)c3c(=O)cc(-c4ccccc4Cl)oc23)[C@H](O)C1 [Flavopyr idol, flavopiridol, reference compound]
[1]; at 500 nM, Table-6, read-out: In vitro CDK2 % of inhibition
  inhibition at 0.5 µM: > 70%
[2]; read-out: In vitro CDK9 % of inhibition, at 500 nM, Table-6
  inhibition at 0.5 µM: > 70%
